In patent US20260216348A1, “IRAK DEGRADATION AGENT AND USE THEREOF” (Increland, priority 2023, published 2026):
One block for each compound: values may come before it.

Legend:
[1] = test system: LPS/IL-1β-induced IL-6 secretion in human peripheral blood mononuclear cells (PBMCs); assay: Inhibition of LPS/IL-1β-induced IL-6 secretion in human PBMCs (IL-6 ELISA); format: cell-based; conditions: PBMC, LPS 10 ng/mL + IL-1β 20 ng/mL, 24 h pre-incubation, 20 h stimulation
Protocol: This experiment was carried out in RPMI 1640 medium containing 10% FBS and 1% penicillin/streptomycin, with each of the compounds at an initial test concentration of 1 μM.
The compound was dissolved in DMSO to prepare a stock solution, which was serially diluted into some working solutions with a 5-fold concentration gradient using the culture medium and then added to a 96-well plate at 10 μL per well. PBMCs (Batch No.: P122101102C; Milecell Biotechnology Inc.) were counted and diluted to a cell concentration of about 1.3×10^6 cells/mL, and then added to the aforementioned compound-containing 96-well plate at 150 μL per well. The system was mixed well and incubated in a 5% CO2 incubator at 37° C. for 24 h. Then 5 μL of LPS (final concentration: 10 ng/mL) and 5 μL of IL-1β (final concentration: 20 ng/mL) were added to each well, respectively, and the culture was continued for 20 h in a 5% CO2 incubator at 37° C. After incubation, the 96-well plate was centrifuged at 2000 rpm for 4 min. The supernatant was collected and diluted 200-fold, then detected using an IL-6 ELISA kit. The OD450 values were read, and converted to IL-6 concentrations based on a standard curve. The dose-response curves were fitted using GraphPad 8.0 to calculate the IC50 values.

IRAK4 = molecular target: T1, IRAK4 (Homo sapiens, UniProt Q9NWZ3); assay: IRAK4 protein degradation in THP1 cells (Western blot); format: cell-based; conditions: THP-1 cells, 24 h
T1 construct: Effect of the Compounds on IRAK4 Protein Degradation in THP1 Cells; endogenous in cells; host or cells: THP-1 cells
T1 sequence (Q9NWZ3 1-460): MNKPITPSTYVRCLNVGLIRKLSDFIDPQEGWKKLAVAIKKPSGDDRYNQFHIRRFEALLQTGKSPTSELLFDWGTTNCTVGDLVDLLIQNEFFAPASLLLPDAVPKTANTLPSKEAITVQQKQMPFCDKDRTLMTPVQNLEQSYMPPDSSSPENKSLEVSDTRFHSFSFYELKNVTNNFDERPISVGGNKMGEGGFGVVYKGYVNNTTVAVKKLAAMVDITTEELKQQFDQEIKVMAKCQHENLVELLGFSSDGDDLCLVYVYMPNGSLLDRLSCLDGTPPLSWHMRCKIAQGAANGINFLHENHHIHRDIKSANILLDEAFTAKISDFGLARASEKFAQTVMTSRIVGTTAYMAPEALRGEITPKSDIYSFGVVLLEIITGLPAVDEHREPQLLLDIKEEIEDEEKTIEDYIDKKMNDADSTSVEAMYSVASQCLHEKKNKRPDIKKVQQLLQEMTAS
Protocol: THP-1 cells were seeded into a 96-well cell culture plate, with 2×10^5 cells and 90 μL of culture medium per well. The cell culture plate was cultured in an incubator with 5% CO2 at 37° C. overnight. The compound was dissolved in DMSO to prepare a stock solution, which was serially diluted into a series of working solutions with a 5-fold concentration gradient using the culture medium and then added to the aforementioned 96-well plate at 10 μL per well. The cell culture plate was further incubated for 24 h in a 5% CO2 incubator at 37° C. After incubation, the 96-well plate was centrifuged and the supernatant was discarded, followed by adding 40 μL of cell lysis buffer containing […]/phosphatase inhibitors to each well for sufficient lysis on an ice bath. Protein quantification was performed using the BCA protein quantification kit, followed by the preparation of Western blot samples. […] After electrophoresis, protein transfer was performed using a PVDF membrane under ice bath conditions for 1 h. After the transfer was completed, the PVDF membrane was blocked with gentle shaking in 5% skim milk at room temperature for 1 h. After blocking, the PVDF membrane was incubated with the primary antibody overnight with gentle shaking at 4° C. The PVDF membrane was washed 3 times with TBST, then the secondary antibody was added and incubated for 1 h with gentle shaking at room temperature, followed by washing of the PVDF membrane with TBST for 3 times. After the washes were completed, the chemiluminescent substrate was added; the PVDF membrane was scanned using a Clinx imager, semi-quantitative analysis was performed with ImageJ software, and the DC50 was calculated using GraphPad Prism 8.0.

SMILES: CN(C)c1cc2nn([C@H]3CC[C@H](CN4CCCN(c5nc6ccc(N7CCC(=O)NC7=O)cc6s5)CC4)CC3)cc2cc1NC(=O)c1cnn2cccnc12 [TM-150]
- IC50 [1]: 6.94 nM

SMILES: C[C@@H]1CN(c2cc3nn([C@H]4CC[C@H](CN5CCN(c6nc7ccc(N8CCC(=O)NC8=O)cc7s6)CC5)CC4)cc3cc2NC(=O)c2cnn3cccnc23)CCO1 [TM-57]
- IC50 [1]: 10.2 nM

SMILES: CN(C)c1cc2nn(C3CCN(CC4CCN(c5nc6cc(N7CCC(=O)NC7=O)ccc6s5)CC4)CC3)cc2cc1NC(=O)c1cnn2cccnc12 [TM-128]
- IC50 [1]: 36.6 nM

- DC50 (IRAK4): 1.69 nM
SMILES: CN(C)c1cc2nn(C3CCC(CN4CCC[C@H](n5cc6cc(N7CCC(=O)NC7=O)ccc6n5)C4)CC3)cc2cc1NC(=O)c1cnn2cccnc12 (some centres unmarked) [TM-204]

- DC50 (IRAK4): 1.74 nM
SMILES: CN(C)c1cc2nn([C@H]3CC[C@H](CN4CC[C@H](F)[C@@H](n5cc6ccc(N7CCC(=O)NC7=O)cc6n5)C4)CC3)cc2cc1NC(=O)c1cnn2cccnc12 [TM-213]

SMILES: CN(C)c1cc2nn([C@H]3CC[C@H](CN4C[C@H]5C[C@@H]4CN5c4nc5ccc(N6CCC(=O)NC6=O)cc5o4)CC3)cc2cc1NC(=O)c1cnn2cccnc12 [TM-83]
- IC50 [1]: 44.1 nM

SMILES: CN(C)c1cc2nn([C@H]3CC[C@H](CN4CCN(c5nc6cc(N7CCC(=O)NC7=O)ccc6s5)CC4)CC3)cc2cc1NC(=O)c1cnn2cccnc12 [TM-54]
- IC50 [1]: 3.06 nM

- DC50 (IRAK4): 1.78 nM
SMILES: CN(C)c1cc2nn([C@H]3CC[C@H](CN4CC[C@H](n5cc6cc(C7CCC(=O)NC7=O)ccc6n5)[C@@H](F)C4)CC3)cc2cc1NC(=O)c1cnn2cccnc12 (some centres unmarked) [TM-168]

SMILES: C[C@@H]1CN(c2cc3nn(C4CCN(CC5CCC(n6cc7cc(C8CCC(=O)NC8=O)ccc7n6)CC5)CC4)cc3cc2NC(=O)c2cnn3cccnc23)CCO1 (some centres unmarked) [TM-49]
- IC50 [1]: 1.33 nM

SMILES: CN(C)c1cc2nn([C@H]3CC[C@H](CN4C[C@@H]5C[C@H]4CN5c4nc5ccc(N6CCC(=O)NC6=O)cc5s4)CC3)cc2cc1NC(=O)c1cnn2cccnc12 [TM-74]
- IC50 [1]: 0.86 nM

SMILES: O=C1CCC(c2ccc3cn(C4CCN(C[C@H]5CC[C@H](n6cc7cc(NC(=O)c8cnn9cccnc89)c(N8CCOCC8)cc7n6)CC5)CC4)nc3c2)C(=O)N1 (some centres unmarked) [TM-1]
- IC50 [1]: 5.86 nM

SMILES: C[C@H]1CN(C[C@H]2CC[C@H](n3cc4cc(NC(=O)c5cnn6cccnc56)c(N(C)C)cc4n3)CC2)CCN1c1nc2ccc(N3CCC(=O)NC3=O)cc2s1 [TM-66]
- IC50 [1]: 19.6 nM

SMILES: CN(C)c1cc2nn([C@H]3CC[C@H](CN4CC5(CCN(c6nc7ccc(N8CCC(=O)NC8=O)cn7n6)CC5)C4)CC3)cc2cc1NC(=O)c1cnn2cccnc12 [TM-148]
- IC50 [1]: 11.6 nM

SMILES: CN(C)c1cc2nn(C3CCC(CN4CC5CN(c6nc7ccc(N8CCC(=O)NC8=O)cc7s6)CC5C4)CC3)cc2cc1NC(=O)c1cnn2cccnc12 (centres unmarked) [TM-60]
- IC50 [1]: 1.94 nM

SMILES: C[C@@H]1CN(c2cc3nn([C@H]4CC[C@H](CN5CCN(c6nc7cc(N8CCC(=O)NC8=O)ccc7s6)CC5)CC4)cc3cc2NC(=O)c2cnn3cccnc23)CCO1 [TM-56]
- IC50 [1]: 8.81 nM

SMILES: C[C@@H]1CN(c2cc3nn([C@H]4CC[C@H](CN5CC6CN(c7nc8cc(N9CCC(=O)NC9=O)ccc8s7)CC6C5)CC4)cc3cc2NC(=O)c2cnn3cccnc23)CCO1 (some centres unmarked) [TM-63]
- IC50 [1]: 8.91 nM

SMILES: C[C@@H]1CN(c2cc3nn([C@H]4CC[C@H](CN5CCC(n6cc7cc(C8CCC(=O)NC8=O)ccc7n6)CC5)CC4)cc3cc2NC(=O)c2cnn3cccnc23)CCO1 (some centres unmarked) [TM-47]
- IC50 [1]: 3.06 nM

SMILES: CN(C)c1cc2nn([C@H]3CC[C@H](CN4CCN(c5nc6ccc(N7CCC(=O)NC7=O)cc6s5)CC4)CC3)cc2cc1NC(=O)c1cnn2cccnc12 [TM-55]
- IC50 [1]: 1.61 nM

SMILES: CN(C)c1cc2nn([C@H]3CC[C@H](CN4CCC(c5cc6cc(N7CCC(=O)NC7=O)ccn6n5)CC4)CC3)cc2cc1NC(=O)c1cnn2cccnc12 [TM-175]
- IC50 [1]: 13.2 nM

SMILES: CN(C)c1cc2nn([C@H]3CC[C@H](CN4CCN(c5nc6ccc(N7CCC(=O)NC7=O)cc6o5)CC4)CC3)cc2cc1NC(=O)c1cnn2cccnc12 [TM-75]
- IC50 [1]: 13.2 nM

SMILES: C[C@@H]1CN(C[C@H]2CC[C@H](n3cc4cc(NC(=O)c5cnn6cccnc56)c(N(C)C)cc4n3)CC2)CC[C@H]1n1cc2ccc(N3CCC(=O)NC3=O)cc2n1 [TM-26]
- IC50 [1]: 0.54 nM

SMILES: CN(C)c1cc2nn([C@H]3CC[C@H](CN4CCC(C5Nc6cc(N7CCC(=O)NC7=O)ccc6C5=O)CC4)CC3)cc2cc1NC(=O)c1cnn2cccnc12 (some centres unmarked) [TM-144]
- IC50 [1]: 38.4 nM

SMILES: CN(C)c1cc2nn([C@H]3CC[C@H](CN4CCN(c5nc6ccc(N7CCC(=O)NC7=O)cn6n5)CC4)CC3)cc2cc1NC(=O)c1cnn2cccnc12 [TM-110]
- IC50 [1]: 21.6 nM

SMILES: O=C1CCC(c2ccc3nn(C4CCN(C[C@H]5CC[C@H](n6cc7cc(NC(=O)c8cnn9cccnc89)c(N8CCOCC8)cc7n6)CC5)CC4)cc3c2)C(=O)N1 (some centres unmarked) [TM-2]
- IC50 [1]: 5.07 nM

SMILES: O=C1CCN(c2ccc3nn(C4CCN(C[C@H]5CC[C@H](n6cc7cc(NC(=O)c8cnn9cccnc89)c(N8CCOCC8)cc7n6)CC5)CC4)cc3c2)C(=O)N1 [TM-44]
- IC50 [1]: 10.2 nM

SMILES: C[C@@H]1CN(c2cc3nn(C4CCN(CC5CCC(n6cc7ccc(C8CCC(=O)NC8=O)cc7n6)CC5)CC4)cc3cc2NC(=O)c2cnn3cccnc23)CCO1 (some centres unmarked) [TM-50]
- IC50 [1]: 4.65 nM

SMILES: CN(C)c1cc2nn(C3CCN(C[C@H]4CC[C@H](n5cc6ccc(N7CCC(=O)NC7=O)cc6n5)CC4)CC3)cc2cc1NC(=O)c1cnn2cccnc12 [TM-52]
- IC50 [1]: 18.7 nM

SMILES: CN(C)c1cc2nn(C3CCN(C[C@H]4CC[C@H](n5cc6cc(N7CCC(=O)NC7=O)ccc6n5)CC4)CC3)cc2cc1NC(=O)c1cnn2cccnc12 [TM-53]
- IC50 [1]: 6.14 nM

SMILES: C[C@@H]1CN(c2cc3nn([C@H]4CC[C@H](CN5CCC(n6cc7cc(N8CCC(=O)NC8=O)ccc7n6)CC5)CC4)cc3cc2NC(=O)c2cnn3cccnc23)CCO1 [TM-46]
- IC50 [1]: 7.46 nM

SMILES: C[C@@H]1CN(c2cc3nn([C@H]4CC[C@H](CN5CC6CN(c7nc8ccc(N9CCC(=O)NC9=O)cc8s7)CC6C5)CC4)cc3cc2NC(=O)c2cnn3cccnc23)CCO1 (some centres unmarked) [TM-62]
- IC50 [1]: 2.48 nM

SMILES: CN(C)c1cc2nn([C@H]3CC[C@H](CN4CC5(CCN(c6nc7cc(F)c(N8CCC(=O)NC8=O)cc7o6)CC5)C4)CC3)cc2cc1NC(=O)c1cnn2cccnc12 [TM-90]
- IC50 [1]: 1.44 nM

SMILES: C[C@@H]1CN(c2cc3nn([C@H]4CC[C@H](CN5CCC(n6cc7ccc(N8CCC(=O)NC8=O)cc7n6)CC5)CC4)cc3cc2NC(=O)c2cnn3cccnc23)CCO1 [TM-45]
- IC50 [1]: 8.81 nM

SMILES: CN(C)c1cc2nn([C@H]3CC[C@H](CN4CCN(c5nc6cc(F)c(N7CCC(=O)NC7=O)cc6o5)CC4)CC3)cc2cc1NC(=O)c1cnn2cccnc12 [TM-85]
- IC50 [1]: 8.41 nM

SMILES: C[C@@H]1CN(C[C@H]2CC[C@H](n3cc4cc(NC(=O)c5cnn6cccnc56)c(N(C)C)cc4n3)CC2)CCN1c1nc2ccc(N3CCC(=O)NC3=O)cc2s1 [TM-65]
- IC50 [1]: 2.26 nM

SMILES: C[C@@H]1CN(c2cc3nn([C@H]4CC[C@H](CN5CCC(n6cc7ccc(C8CCC(=O)NC8=O)cc7n6)CC5)CC4)cc3cc2NC(=O)c2cnn3cccnc23)CCO1 (some centres unmarked) [TM-48]
- IC50 [1]: 1.61 nM

SMILES: CN(C)c1cc2nn([C@H]3CC[C@H](CN4C5CCC4CN(c4nc6ccc(N7CCC(=O)NC7=O)cc6o4)C5)CC3)cc2cc1NC(=O)c1cnn2cccnc12 [TM-146]
- IC50 [1]: 44.1 nM

SMILES: CN(C)c1cc2nn(C3CCC(CN4CC5CN(c6nc7cc(N8CCC(=O)NC8=O)ccc7s6)CC5C4)CC3)cc2cc1NC(=O)c1cnn2cccnc12 (centres unmarked) [TM-61]
- IC50 [1]: 1.15 nM

SMILES: CN(C)c1cc2nn([C@H]3CC[C@H](CN4CCN(c5nc6cc(N7CCC(=O)NC7=O)ccc6o5)CC4)CC3)cc2cc1NC(=O)c1cnn2cccnc12 [TM-145]
- IC50 [1]: 2.62 nM
